From patent US12024510B2, “Pyrazolopyridine-diamides, their use as insecticide and processes for preparing the same” (PI INDUSTRIES LTD., priority 2017, dated 2024)

Legend:
Type in all cases: in vivo
Spodoptera litura = Spodoptera litura diet incorporation method; details: third instar larvae, dead and moribund combined, 96 h after release
Procedure, shortened: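 Compound milled to <2 μm average particle size in surfactant, dispersed in water (500 ppm stock dispersion), then mixed into semi-synthetic diet at ~50° C. One starved third-instar larva per diet cell, 25° C, 70% RH; percent mortality (dead plus moribund) scored at 96 h.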

Plutella xylostella = assay: whole plant or invertebrate; details: foliar, cabbage leaf dip, second instar larvae, dead and moribund combined, 72 h after release
Procedure, shortened: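 Leaf-dip bioassay: second-instar larvae, singly, fed on cabbage leaves dipped 10 s in test dispersion (bead-milled, diluted with 0.01% Triton-X to test concentration) and dried 20 min. Held at 25 °C, 70% RH; % mortality counts dead and moribund at 72 h.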

Helicoverpa armigera = Helicoverpa armigera diet incorporation method; details: third instar larvae, dead and moribund combined, 96 h after release
Procedure, shortened: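 Third-instar larvae, starved, were placed singly on diet pieces containing test dispersion (bead-milled in surfactant, particles under 2 μm, 500 ppm stock then diluted). Trays kept at 25° C. and 70% RH; mortality counted at 96 h, moribund larvae counted with dead.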

Measured: mortality at 300 ppm

Cc1cc2ccnn2c(C(=O)NC(C)(C)C)c1NC(=O)c1cc(OCC(F)(F)F)nn1-c1ncccc1Cl [Compound 19, N-(tert-butyl)-6-(1-(3-chloropyridin-2-yl)-3-(2,2,2-trifluoroethoxy)-1H-pyrazole-5-carboxamido)-5-methylpyrazolo[1,5-a]pyridine-7-carboxamide]
> 70%: all assays above

C=CCNC(=O)c1c(NC(=O)c2cc(OCC(F)(F)F)nn2-c2ncccc2Cl)c(C)cc2ccnn12 [Compound 20, N-allyl-6-(1-(3-chloropyridin-2-yl)-3-(2,2,2-trifluoroethoxy)-1H-pyrazole-5-carboxamido)-5-methylpyrazolo[1,5-a]pyridine-7-carboxamide]
> 70%: all assays above

CCCNC(=O)c1c(NC(=O)c2cc(Br)nn2-c2ncccc2Cl)c(C)cc2ccnn12 [Compound 21, 6-(3-bromo-1-(3-chloropyridin-2-yl)-1H-pyrazole-5-carboxamido)-5-methyl-N-propylpyrazolo[1,5-a]pyridine-7-carboxamide]
> 70%: all assays above

Cc1cc2ccnn2c(C(=O)NCCC#N)c1NC(=O)c1cc(Br)nn1-c1ncccc1Cl [Compound 22, 6-(3-bromo-1-(3-chloropyridin-2-yl)-1H-pyrazole-5-carboxamido)-N-(2-cyanoethyl)-5-methylpyrazolo[1,5-a]pyridine-7-carboxamide]
> 70%: all assays above

CONC(=O)c1c(NC(=O)c2cc(Br)nn2-c2ncccc2Cl)c(C)cc2ccnn12 [Compound 24, 6-(3-bromo-1-(3-chloropyridin-2-yl)-1H-pyrazole-5-carboxamido)-N-methoxy-5-methylpyrazolo[1,5-a]pyridine-7-carboxamide]
> 70%: all assays above

CNC(=O)c1c(NC(=O)c2cc(OC)nn2-c2ncccc2Cl)c(C)cc2ccnn12 [Compound 25, 6-(1-(3-chloropyridin-2-yl)-3-methoxy-1H-pyrazole-5-carboxamido)-N,5-dimethylpyrazolo[1,5-a]pyridine-7-carboxamide]
> 70%: all assays above

COc1cc(C(=O)Nc2c(C)cc3ccnn3c2C(=O)NC2CC2)n(-c2ncccc2Cl)n1 [Compound 26, 6-(1-(3-chloropyridin-2-yl)-3-methoxy-1H-pyrazole-5-carboxamido)-N-cyclopropyl-5-methylpyrazolo[1,5-a]pyridine-7-carboxamide]
> 70%: all assays above

COc1cc(C(=O)Nc2c(C)cc3ccnn3c2C(=O)NCC2CC2)n(-c2ncccc2Cl)n1 [Compound 27, 6-(1-(3-chloropyridin-2-yl)-3-methoxy-1H-pyrazole-5-carboxamido)-N-(cyclopropylmethyl)-5-methylpyrazolo[1,5-a]pyridine-7-carboxamide]
> 70%: all assays above

Cc1cc2ccnn2c(C(=O)NCC#N)c1NC(=O)c1cc(Br)nn1-c1ncccc1Cl [Compound 28, 6-(3-bromo-1-(3-chloropyridin-2-yl)-1H-pyrazole-5-carboxamido)-N-(cyanomethyl)-5-methylpyrazolo[1,5-a]pyridine-7-carboxamide]
> 70%: all assays above

CCCNC(=O)c1c(NC(=O)c2cc(OC)nn2-c2ncccc2Cl)c(C)cc2ccnn12 [Compound 29, 6-(1-(3-chloropyridin-2-yl)-3-methoxy-1H-pyrazole-5-carboxamido)-5-methyl-N-propylpyrazolo[1,5-a]pyridine-7-carboxamide]
> 70%: all assays above

COc1cc(C(=O)Nc2c(C)cc3ccnn3c2C(=O)NC(C)(C)C)n(-c2ncccc2Cl)n1 [Compound 30, N-(tert-butyl)-6-(1-(3-chloropyridin-2-yl)-3-methoxy-1H-pyrazole-5-carboxamido)-5-methylpyrazolo[1,5-a]pyridine-7-carboxamide]
> 70%: all assays above

CCNC(=O)c1c(NC(=O)c2cc(OC)nn2-c2ncccc2Cl)c(C)cc2ccnn12 [Compound 31, 6-(1-(3-chloropyridin-2-yl)-3-methoxy-1H-pyrazole-5-carboxamido)-N-ethyl-5-methylpyrazolo[1,5-a]pyridine-7-carboxamide]
> 70%: all assays above

COc1cc(C(=O)Nc2c(C)cc3ccnn3c2C(=O)NC(C)C)n(-c2ncccc2Cl)n1 [Compound 32, 6-(1-(3-chloropyridin-2-yl)-3-methoxy-1H-pyrazole-5-carboxamido)-N-isopropyl-5-methylpyrazolo[1,5-a]pyridine-7-carboxamide]
> 70%: all assays above

COCCNC(=O)c1c(NC(=O)c2cc(OC)nn2-c2ncccc2Cl)c(C)cc2ccnn12 [Compound 33, 6-(1-(3-chloropyridin-2-yl)-3-methoxy-1H-pyrazole-5-carboxamido)-N-(2-methoxyethyl)-5-methylpyrazolo[1,5-a]pyridine-7-carboxamide]
> 70%: all assays above

Cc1cc2ccnn2c(C(=O)NC2COC2)c1NC(=O)c1cc(Br)nn1-c1ncccc1Cl [Compound 35, 6-(3-bromo-1-(3-chloropyridin-2-yl)-1H-pyrazole-5-carboxamido)-5-methyl-N-(oxetan-3-yl)pyrazolo[1,5-a]pyridine-7-carboxamide]
> 70%: all assays above

C#CCNC(=O)c1c(NC(=O)c2cc(Br)nn2-c2ncccc2Cl)c(C)cc2ccnn12 [Compound 36, 6-(3-bromo-1-(3-chloropyridin-2-yl)-1H-pyrazole-5-carboxamido)-5-methyl-N-(prop-2-yn-1-yl)pyrazolo[1,5-a]pyridine-7-carboxamide]
> 70%: all assays above

CSCCNC(=O)c1c(NC(=O)c2cc(Br)nn2-c2ncccc2Cl)c(C)cc2ccnn12 [Compound 37, 6-(3-bromo-1-(3-chloropyridin-2-yl)-1H-pyrazole-5-carboxamido)-5-methyl-N-(2-(methylthio)ethyl)pyrazolo[1,5-a]pyridine-7-carboxamide]
> 70%: all assays above

COc1cc(C(=O)Nc2c(C)cc3ccnn3c2C(=O)NCC#N)n(-c2ncccc2Cl)n1 [Compound 40, 6-(1-(3-chloropyridin-2-yl)-3-methoxy-1H-pyrazole-5-carboxamido)-N-(cyanomethyl)-5-methylpyrazolo[1,5-a]pyridine-7-carboxamide]
> 70%: all assays above

COc1cc(C(=O)Nc2c(C)cc3ccnn3c2C(=O)NCCC#N)n(-c2ncccc2Cl)n1 [Compound 41, 6-(1-(3-chloropyridin-2-yl)-3-methoxy-1H-pyrazole-5-carboxamido)-N-(2-cyanoethyl)-5-methylpyrazolo[1,5-a]pyridine-7-carboxamide]
> 70%: all assays above

CONC(=O)c1c(NC(=O)c2cc(OC)nn2-c2ncccc2Cl)c(C)cc2ccnn12 [Compound 42, 6-(1-(3-chloropyridin-2-yl)-3-methoxy-1H-pyrazole-5-carboxamido)-N-methoxy-5-methylpyrazolo[1,5-a]pyridine-7-carboxamide]
> 70%: all assays above

C=CCNC(=O)c1c(NC(=O)c2cc(OC)nn2-c2ncccc2Cl)c(C)cc2ccnn12 [Compound 44, N-allyl-6-(1-(3-chloropyridin-2-yl)-3-methoxy-1H-pyrazole-5-carboxamido)-5-methylpyrazolo[1,5-a]pyridine-7-carboxamide]
> 70%: all assays above

C#CCNC(=O)c1c(NC(=O)c2cc(OC)nn2-c2ncccc2Cl)c(C)cc2ccnn12 [Compound 45, 6-(1-(3-chloropyridin-2-yl)-3-methoxy-1H-pyrazole-5-carboxamido)-5-methyl-N-(prop-2-yn-1-yl)pyrazolo[1,5-a]pyridine-7-carboxamide]
> 70%: all assays above

COc1cc(C(=O)Nc2c(C)cc3ccnn3c2C(=O)NC2COC2)n(-c2ncccc2Cl)n1 [Compound 46, 6-(1-(3-chloropyridin-2-yl)-3-methoxy-1H-pyrazole-5-carboxamido)-5-methyl-N-(oxetan-3-yl)pyrazolo[1,5-a]pyridine-7-carboxamide]
> 70%: all assays above

CCCNC(=O)c1c(NC(=O)c2cc(Br)nn2-c2ncccc2Cl)c(Br)cc2ccnn12 [Compound 50, 5-bromo-6-(3-bromo-1-(3-chloropyridin-2-yl)-1H-pyrazole-5-carboxamido)-N-propylpyrazolo[1,5-a]pyridine-7-carboxamide]
> 70%: all assays above
